Patent US9657002B2, “Oxindole derivatives carrying an oxetane substituent and use thereof for treating vassopressin-related diseases” (AbbVie Deutschland GmbH & Co. KG, priority 2013, dated 2017)
Read-outs that look alike come from different tables or passages of the source.

Columns and labels:
[1] = biological target: T1, human vasopressin V1b receptor (Homo sapiens, UniProt P47901); conditions: read-out: Ki(h-V1b)*, CHO-K1 membranes, 3H-AVP displacement
T1 sequence (P47901 1-424): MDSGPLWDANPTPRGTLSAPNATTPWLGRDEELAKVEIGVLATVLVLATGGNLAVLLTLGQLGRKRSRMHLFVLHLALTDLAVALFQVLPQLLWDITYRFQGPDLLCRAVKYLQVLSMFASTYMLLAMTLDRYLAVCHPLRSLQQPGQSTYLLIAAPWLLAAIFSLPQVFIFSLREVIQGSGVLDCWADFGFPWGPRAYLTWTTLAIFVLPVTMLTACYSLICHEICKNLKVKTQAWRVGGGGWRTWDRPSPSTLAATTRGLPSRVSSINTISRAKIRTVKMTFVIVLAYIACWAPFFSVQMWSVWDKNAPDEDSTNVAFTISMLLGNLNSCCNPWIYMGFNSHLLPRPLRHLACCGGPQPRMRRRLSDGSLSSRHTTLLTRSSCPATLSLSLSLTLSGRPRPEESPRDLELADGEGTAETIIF

[2] = biological target: human vasopressin V1a receptor (Homo sapiens, UniProt P37288); test: Vasopressin V1a receptor binding assay; conditions: selectivity quotient, human V1a vs human V1b
Sequence of human vasopressin V1a receptor (P37288 whole entry): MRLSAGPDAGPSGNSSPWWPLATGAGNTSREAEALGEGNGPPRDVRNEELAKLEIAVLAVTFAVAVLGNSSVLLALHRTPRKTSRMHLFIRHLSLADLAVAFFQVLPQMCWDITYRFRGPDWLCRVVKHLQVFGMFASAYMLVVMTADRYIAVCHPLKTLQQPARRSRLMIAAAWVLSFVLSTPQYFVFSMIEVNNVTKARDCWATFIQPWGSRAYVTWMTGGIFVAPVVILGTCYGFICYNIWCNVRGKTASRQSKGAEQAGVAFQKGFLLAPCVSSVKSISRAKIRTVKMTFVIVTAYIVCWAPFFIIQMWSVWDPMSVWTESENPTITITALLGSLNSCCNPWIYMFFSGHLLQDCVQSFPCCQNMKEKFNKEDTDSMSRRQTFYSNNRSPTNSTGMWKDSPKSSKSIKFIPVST

[3] = test system: stress-induced ACTH release; test: Stress-induced ACTH release; assay type: in vivo, NMRI mice; conditions: mice, restraint stress, i.p. 1 hour before; at 10 and 30 mg/kg
Excerpt: (§1) Male NMRI mice (Janvier, Le Genest-St-Isle, France) were used for stress-induced Adrenocorticotropic hormone (ACTH) release. Adult male Wistar rats (175-220 g body weight upon arrival) were obtained from Harlan Inc. (Indianapolis, Ind.). For the forced swim test, male Sprague Dawley rats (100-120 g body weight upon arrival) were obtained from Janvier (Le Genest-St-Isle, France). The animals were acclimatized to the animal facilities for at least one week before the start of the experimental procedures. Animals were maintained in a controlled environment on a 12:12 hour light dark schedule (lights on 06:00 h for rats in Vogel conflict test and 05:30 h for rats in forced swim test). Experimental procedures took place during the illuminated phase of the light/dark cycle. Food and water were available ad libitum, except for the Vogel conflict test, where the animals were submitted to a water deprivation regimen as described below. […]
The blood was collected in 1.3 mL blood sampling vials containing potassium EDTA (Sarstedt, Nümbrecht, Germany) and […] aprotinin solution (saline solution, 3-7 TIU [trypsin inhibitor units]/mg protein; Sigma-Aldrich, Germany). […] ACTH concentrations were measured by an ELISA (enzyme-linked immuno sorbent assay) for ACTH (IBL Hamburg, Germany). […]

Wistar rats = test: Vogel conflict test; assay type: in vivo; conditions: i.p. 30 minutes before the test, at 10 and 30 mg/kg
Excerpt: as §1
The Vogel conflict test is a well-validated animal model to detect compounds with anxiolytic properties. […] The number of punished responses was automatically recorded for each rat during 5 min of testing. […]

Sprague Dawley rats = test: Forced swim test; assay type: in vivo; conditions: i.p. 24, 4 and 0.5 hours before testing, at 10 mg/kg
Excerpt: as §1
The forced swim test consisted of a pre-test and a test swim. […] Test swims were recorded on videotape and subsequently used for analysis. […]

[4] = biological target: T1, human vasopressin V1b receptor; test: biochemical

Compound	Ki [1] [nM]	Ki(h-V1a)/Ki(h-V1b) [2]	stress-induced ACTH release [3]	punished responses in Vogel conflict (anxiolytic-like efficacy) (Wistar rats)	latency to immobility in the forced swim test (antidepressant-like effect) (Sprague Dawley rats)	Ki [4] [nM]
(S)—N-(5-cyano-1-((2,4-dimethoxyphenyl)sulfonyl)-3-(2-ethoxypyridin-3-yl)-2-oxoindolin-3-yl)-4-(4-(oxetan-3-yl)piperazin-1-yl)piperidine-1-carboxamide [Example 2]	1 to 10	++ (25-75)				
COc1ccc(S(=O)(=O)N2C(=O)[C@@](NC(=O)N3CCN(C4CCN(C5COC5)CC4)CC3)(c3cccnc3OC)c3cc(C#N)ccc32)c(OC)c1 [Example 21, N-[(3S)-5-cyano-1-(2,4-dimethoxyphenyl)sulfonyl-3-(2-methoxy-3-pyridyl)-2-oxo-indolin-3-yl]-4-[1-(oxetan-3-yl)-4-piperidyl]piperazine-1-carboxamide]		+++ (>75)	significantly blocked the stress response	significant effect	significant antidepressant-like effect	10 to 100
COc1ccc(S(=O)(=O)N2C(=O)[C@@](NC(=O)N3CCN(C4CCN(C5(C)COC5)CC4)CC3)(c3cccnc3OC)c3cc(C#N)ccc32)c(OC)c1.O=C(O)C(F)(F)F.O=C(O)C(F)(F)F [Example 52, (S)—N-(5-cyano-1-((2,4-dimethoxyphenyl)sulfonyl)-3-(2-methoxypyridin-3-yl)-2-oxoindolin-3-yl)-4-(1-(3-methyloxetan-3-yl)piperidin-4-yl)piperazine-1-carboxamide, 2 trifluoroacetic acid]	1 to 10	+++ (>75)				
COc1ccc(S(=O)(=O)N2C(=O)[C@@](NC(=O)N3CCN(C4CCN(C5COC5C)CC4)CC3)(c3cccnc3OC)c3cc(C#N)ccc32)c(OC)c1.O=C(O)C(F)(F)F.O=C(O)C(F)(F)F (stereo partly drawn) [Example 53, N—((S)-5-cyano-1-((2,4-dimethoxyphenyl)sulfonyl)-3-(2-methoxypyridin-3-yl)-2-oxoindolin-3-yl)-4-(1-(2-methyloxetan-3-yl)piperidin-4-yl)piperazine-1-carboxamide, 2 trifluoroacetic acid]	1 to 10	++ (25-75)				
